Laboratory results as given in patent US9221827B2, “Antimicrobial compounds and methods of making and using the same” (Melinta Therapeutics, Inc., priority 2011, dated 2015).

These compounds were tested on Escherichia coli strain ATCC25922 (assay: standard microdilution assay to determine minimum inhibitory concentrations (MICs)). Settings: Escherichia coli strain ATCC25922, microdilution.
Type: cell-based
How it was run: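 Broth microdilution per CLSI (M7-A8/M100-S20), 100 μl final volume, with reference-strain quality control; MIC is the lowest inhibitory concentration. Scored "+"/"−" against a 16 micrograms/ml cutoff, "N/A" where unavailable.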
`C=CC(NCCCNC(=N)N)c1ccc(-n2cc3cc(-c4cc(CCCC(C)N)cc(C(F)(F)F)c4)[nH]c3nc2=O)cc1` (centres unmarked) [Compound 501] was tested, and the “E. coli ATCC25922 MIC” value was “+ (a “+” indicates that the compound has an MIC value of 16 micrograms/ml or less)”. For `Cc1cc(CCCCN)cc(-c2cc3cn(-c4ccc(CNCCCN=C(N)N)cc4)c(=O)nc3[nH]2)c1Cl` [Compound 63], the “E. coli ATCC25922 MIC” value was “+ (a “+” indicates that the compound has an MIC value of 16 micrograms/ml or less)”. `NCCCCc1cc(Cl)c(Cl)c(-c2cc3cn(-c4ccc(CNCCCN=C(N)N)cc4)c(=O)nc3[nH]2)c1` [Compound 62] was tested, and the “E. coli ATCC25922 MIC” value was “+ (a “+” indicates that the compound has an MIC value of 16 micrograms/ml or less)”. With `CCc1cc(CCCCN)cc(-c2cc3cn(-c4ccc(CNCCCNC(=N)N)cc4)c(=O)nc3[nH]2)c1` [Compound 123] the “E. coli ATCC25922 MIC” value was “+ (a “+” indicates that the compound has an MIC value of 16 micrograms/ml or less)”. For `CNC(C)CCCc1cc(-c2cc3cn(-c4ccc(C(C)NCCCNC(=N)N)cc4)c(=O)nc3[nH]2)cc(C(F)(F)F)c1` (centres unmarked) [Compound 290], the “E. coli ATCC25922 MIC” value was “+ (a “+” indicates that the compound has an MIC value of 16 micrograms/ml or less)”. `C[C@H](N)CCCc1cc(-c2cc3cn(-c4ccc([C@H](C)NCCCNC(=N)N)cc4)c(=O)nc3[nH]2)cc(C(F)(F)F)c1` [Compound 236] was tested, and the “E. coli ATCC25922 MIC” value was “+ (a “+” indicates that the compound has an MIC value of 16 micrograms/ml or less)”. For `N=C(N)NCCCNCc1ccc(-n2cc3cc(-c4cc(CCCCN)cc(-n5ccnn5)c4)[nH]c3nc2=O)cc1` [Compound 55], the “E. coli ATCC25922 MIC” value was “+ (a “+” indicates that the compound has an MIC value of 16 micrograms/ml or less)”. For `CC(CCN)Cc1cc(-c2cc3cn(-c4ccc(CNCCCNC(=N)N)cc4)c(=O)nc3[nH]2)cc(F)c1Cl` (centres unmarked) [Compound 129], the “E. coli ATCC25922 MIC” value was “+ (a “+” indicates that the compound has an MIC value of 16 micrograms/ml or less)”. `NCCC[C@H](O)c1cc(OC(F)(F)F)cc(-c2cc3cn(-c4ccc(CNCCCN=C(N)N)cc4)c(=O)nc3[nH]2)c1` [Compound 75] was tested, and the “E. coli ATCC25922 MIC” value was “+ (a “+” indicates that the compound has an MIC value of 16 micrograms/ml or less)”. In the case of `C[C@H](NCCCNC(=N)N)c1ccc(-n2cc3cc(-c4cc(COCCN)cc(OC(F)(F)F)c4)[nH]c3nc2=O)cc1` [Compound 70], the “E. coli ATCC25922 MIC” value is reported as “+ (a “+” indicates that the compound has an MIC value of 16 micrograms/ml or less)”. For `N=C(N)NCCCNCc1ccc(-n2cc3cc(-c4cc(CCCCN)cc(Cl)c4C(F)(F)F)[nH]c3nc2=O)cc1` [Compound 226], the “E. coli ATCC25922 MIC” value was “+ (a “+” indicates that the compound has an MIC value of 16 micrograms/ml or less)”. For `CC(C)(N)CCCc1cc(-c2cc3cn(-c4ccc(CNCCCNC(=N)N)cc4)c(=O)nc3[nH]2)cc(C(F)(F)F)c1` [Compound 317], the “E. coli ATCC25922 MIC” value was “+ (a “+” indicates that the compound has an MIC value of 16 micrograms/ml or less)”. In the case of `N=C(N)NCCCNCc1ccc(-n2cc3cc(-c4cc(CCC5(CN)CCC5)ccc4F)[nH]c3nc2=O)cc1` [Compound 116], the “E. coli ATCC25922 MIC” value is reported as “+ (a “+” indicates that the compound has an MIC value of 16 micrograms/ml or less)”. For `Cc1cc(CCCCN)cc(-c2cc3cn(-c4ccc(CNCCCNC(=N)N)cc4)c(=O)nc3[nH]2)c1C(F)(F)F` [Compound 222], the “E. coli ATCC25922 MIC” value was “+ (a “+” indicates that the compound has an MIC value of 16 micrograms/ml or less)”. In the case of `C[C@H](NCCCNC(=N)N)c1ccc(-n2cc3cc(-c4cc(CO[C@@H](C)CN)cc(SC(F)(F)F)c4)[nH]c3nc2=O)cc1` [Compound 327], the “E. coli ATCC25922 MIC” value is reported as “+ (a “+” indicates that the compound has an MIC value of 16 micrograms/ml or less)”. `N=C(N)NCCCNCc1ccc(-n2cc3cc(-c4cc(CCCCN)cc(NC(N)=O)c4)[nH]c3nc2=O)cc1` [Compound 49] was tested, and the “E. coli ATCC25922 MIC” value was “+ (a “+” indicates that the compound has an MIC value of 16 micrograms/ml or less)”. With `CC(N)CCCc1cc(Cl)c(F)c(-c2cc3cn(-c4ccc(C(CCO)NCCCNC(=N)N)cc4)c(=O)nc3[nH]2)c1` (centres unmarked) [Compound 506] the “E. coli ATCC25922 MIC” value was “+ (a “+” indicates that the compound has an MIC value of 16 micrograms/ml or less)”. For `C[C@H](NCCCNC(=N)N)c1ccc(-n2cc3cc(-c4cc(CCC5(CN)CC5)cc(SC(F)(F)F)c4)[nH]c3nc2=O)cc1` [Compound 310], the “E. coli ATCC25922 MIC” value was “+ (a “+” indicates that the compound has an MIC value of 16 micrograms/ml or less)”. With `C=CC[C@H](NCCCNC(=N)N)c1ccc(-n2cc3cc(-c4cc(CCC[C@H](C)N)cc(C(F)(F)F)c4)[nH]c3nc2=O)cc1` [Compound 474] the “E. coli ATCC25922 MIC” value was “+ (a “+” indicates that the compound has an MIC value of 16 micrograms/ml or less)”. With `CC(N)CCCc1cc(OC(F)F)c(F)c(-c2cc3cn(-c4ccc(CNCCCNC(=N)N)cc4)c(=O)nc3[nH]2)c1` (centres unmarked) [Compound 297] the “E. coli ATCC25922 MIC” value was “+ (a “+” indicates that the compound has an MIC value of 16 micrograms/ml or less)”. `COc1cc(CCCCN)cc(-c2cc3cn(-c4ccc(CNCCCNC(=N)N)cc4)c(=O)nc3[nH]2)c1C(F)(F)F` [Compound 265] was tested, and the “E. coli ATCC25922 MIC” value was “+ (a “+” indicates that the compound has an MIC value of 16 micrograms/ml or less)”. With `N=C(N)NCCCNCc1c(F)cc(-n2cc3cc(-c4cc(CCCCN)ccc4F)[nH]c3nc2=O)cc1F` [Compound 53] the “E. coli ATCC25922 MIC” value was “+ (a “+” indicates that the compound has an MIC value of 16 micrograms/ml or less)”. In the case of `N=C(N)NCC(F)(F)CNCc1ccc(-n2cc3cc(-c4cc(CCCCN)cc(OC(F)(F)F)c4)[nH]c3nc2=O)cc1` [Compound 30], the “E. coli ATCC25922 MIC” value is reported as “+ (a “+” indicates that the compound has an MIC value of 16 micrograms/ml or less)”.

Same assay, conditions: Escherichia coli strain ATCC25922, standard microdilution assay
For `CC[C@H](NCCCNC(=N)N)c1ccc(-n2cc3cc(-c4cc(CCC[C@H](C)N)cc(SC(F)(F)F)c4)[nH]c3nc2=O)cc1` [Compound 407], the “E. coli ATCC25922 MIC” value was “+ (a “+” indicates that the compound has an MIC value of 16 micrograms/ml or less)”. For `CC(C)(N)COCc1cc(-c2cc3cn(-c4ccc(CNCCCNC(=N)N)cc4)c(=O)nc3[nH]2)cc(C(F)(F)F)c1` [Compound 454], the “E. coli ATCC25922 MIC” value was “+ (a “+” indicates that the compound has an MIC value of 16 micrograms/ml or less)”. For `CC(C)Cc1cc(CCCC(C)N)cc(-c2cc3cn(-c4ccc(C(C)NCCCNC(=N)N)cc4)c(=O)nc3[nH]2)c1` (centres unmarked) [Compound 385], the “E. coli ATCC25922 MIC” value was “+ (a “+” indicates that the compound has an MIC value of 16 micrograms/ml or less)”. In the case of `N=C(N)NCCCNCc1ccc(-n2cc3cc(-c4cc(COC5COCC5N)cc(OC(F)(F)F)c4)[nH]c3nc2=O)cc1` (centres unmarked) [Compound 459], the “E. coli ATCC25922 MIC” value is reported as “+ (a “+” indicates that the compound has an MIC value of 16 micrograms/ml or less)”. For `COC[C@H](N)CCCc1cc(SC(F)(F)F)cc(-c2cc3cn(-c4ccc(CNCCCNC(=N)N)cc4)c(=O)nc3[nH]2)c1` [Compound 424], the “E. coli ATCC25922 MIC” value was “+ (a “+” indicates that the compound has an MIC value of 16 micrograms/ml or less)”. `C[C@H](NCCCNC(=N)N)c1ccc(-n2cc3cc(-c4cc(C[C@H]5C[C@H](CN)C5)cc(SC(F)(F)F)c4)[nH]c3nc2=O)cc1` [Compound 403] was tested, and the “E. coli ATCC25922 MIC” value was “+ (a “+” indicates that the compound has an MIC value of 16 micrograms/ml or less)”.
